Reference: patent US20100062063A1, “LIGHT-STABLE SOLID PHARMACEUTICAL COMPOSITION OF RAMOSETRON” (ASTELLAS PHARMA INC., priority 2006, published 2010)
Entries after “also recorded” stand apart in the source; their conditions may differ.

Columns and labels:
[1] = Area under the light absorbance spectrum curve of a 0.001 w/v % aqueous solution (UV meter, trapezoidal formula); format: physicochemical; settings: 0.001 w/v % aqueous solution of the added compound
Experimental: FIG. 1 is a graph showing the relationship between the absorbance wavelength and the absorbance of various compounds. The measurement method is as follows. A 0.001 w/v % aqueous solution of a drug and various stabilizers was prepared, and the absorbances at each absorbance wavelength in a range of 200 nm to 600 nm were measured. […] Condition: scan speed: medium speed, sampling pitch: 1.0, length of light path: 10 mm, width of a slit: 2.0 nm.
FIG. 2 is a graph showing a method for calculating the area under the spectrum curve of various compounds. The area under the spectrum curve was calculated by a trapezoidal formula. That is, for the spectrum of each of the compounds, the trapezoidal area was calculated at every sampling pitch (1.0 nm), and a desired area was measured from the total value of the trapezoidal areas in the wavelength range.

[2] = Stability under irradiation with a white fluorescent lamp of 1000 Lux, assay value by liquid chromatography; settings: compound added to ramosetron hydrochloride preparation
Experimental: The quantitative determination was carried out by liquid chromatography.

[3] = Stability under sealing of an HDPE plastic bottle at 40° C. and 75% RH, assay value by liquid chromatography; format: physicochemical; settings: compound added to ramosetron or its salt

Row | Compound | area under the spectrum curve at the wavelength range of 220 nm to 240 nm [1] | area under the spectrum curve at the wavelength range of 280 nm to 300 nm [1] | stabilizing effect of the added compound on ramosetron hydrochloride against light (in words) [2] | stabilizing effect of the added compound on ramosetron under a high-temperature and high-humidity condition (in words) [3]
1 | OC[C@@H](O)[C@@H](O)[C@H](O)[C@H](O)CO [mannitol, reference compound] | 0.1 | 0.1 | did not exhibit a remarkable stabilizing effect against light | –
2 | methyl hesperidin | 5.4 | 3.7 | a remarkable stabilizing effect of ramosetron hydrochloride against the irradiation with light is found; also recorded: exhibited a remarkable stabilizing effect against light | a remarkable stabilizing effect under a high-temperature and high-humidity condition
3 | αG hesperidin | 6.0 | 5.0 | a remarkable stabilizing effect of ramosetron hydrochloride against the irradiation with light is found; also recorded: exhibited a remarkable stabilizing effect against light | a remarkable stabilizing effect under a high-temperature and high-humidity condition

The next lines start with results.

Row | area under the spectrum curve at the wavelength range of 220 nm to 240 nm [1] | area under the spectrum curve at the wavelength range of 280 nm to 300 nm [1] | Compound | stabilizing effect of the added compound on ramosetron hydrochloride against light (in words) [2] | stabilizing effect of the added compound on ramosetron under a high-temperature and high-humidity condition (in words) [3]
4 | 4.2 | 1.8 | O=C([O-])c1ccccc1-c1c2cc(I)c(=O)c(I)c-2oc2c(I)c([O-])c(I)cc12.[Na+].[Na+] [Food Red No. 3, reference compound] | – | –
5 | 10.0 | 3.1 | O=S(=O)([O-])c1cc(S(=O)(=O)[O-])c2c(N=Nc3ccc(S(=O)(=O)[O-])c4ccccc34)c(O)ccc2c1.[Na+].[Na+].[Na+] [Food Red No. 102] | – | –
6 | 8.4 | 19.9 | Cc1cc(S(=O)(=O)[O-])c2c(C)ccc(C(C)C)cc1-2.[Na+] [sodium azulene sulfonate] | a remarkable stabilizing effect of ramosetron hydrochloride against the irradiation with light is found; also recorded: exhibited a remarkable stabilizing effect against light | –
